{"source": "patent US20250302913A1", "about": "“LACRIPEP PROMOTES NEUROREGENERATION AND MAINTAINS EPITHELIAL PROGENITOR CELL IDENTITY” (The Regents of The University of California, priority 2022, published 2025)", "type_in_all_cases": "in vivo, mouse", "key": {"Aire KO mice [1]": {"tested_on": "Aire KO mice", "experiment": "Basal tear secretion (phenol red thread) in Aire KO dry eye mice", "conditions": "day 15, 4 μM topical 3x per day for 14 days", "method": "To determine the impact of lacripep on physiological (basal) tear secretion, lacripep (4 μM) or phosphate buffered saline (PBS, control) was topically applied to Aire KO corneas 3 times (3×) per day for 14 consecutive days (from 5 to 7 wk of age) and tear production was measured at day 0, 7 and 15 (FIG. 1A).\nAll procedures were approved by the UCSF Institutional Animal Care and Use Committee (IACUC) and adhered to the NIH Guide for the Care and Use of Laboratory Animals (Approval number: 332AN089075-02). Wild type (WT) and Aire-deficient mice on the BALB/c background (BALB/c Aire KO) were the gift of Mark Anderson, University of California, San Francisco. Adult female mice (aged between 5 and 7 weeks) were used in all experiments. […] Appropriate sample size was calculated using power calculations. […]\n(§1) Mice were anesthetized with isoflurane and basal tear secretion was then measured using a Zone-Quick phenol red thread (as indicated by the length of the tear-absorbed region in 15 seconds). Stimulated tear secretion was measured after 4.5 mg/kg of pilocarpine diluted in saline was injected into the peritoneum (i.p.). Ten minutes later, mice were anesthetized with isoflurane and tear secretion was measured using a Zone-Quick phenol red thread (Showa Yakuhin Kako Co. Ltd., Tokyo, Japan)."}, "[2]": {"tested_on": "intraepithelial sensory nerve terminals", "experiment": "Intraepithelial sensory nerve terminals by 3D imaging (IMARIS)", "conditions": "day 7", "source_text": "We next determined the extent of functional reinnervation of the cornea at day 7 by assessing the distribution of sensory nerve endings (nerve terminals) within the epithelial layers in lacripep-treated Aire KO corneas compared to WT and PBS KO controls (FIG. 3D). Sensory nerve terminals within the corneal epithelium respond to changes in the thickness and stability of the tear film to promote basal tear secretion, while also triggering epithelial responses to restore homeostasis through the release of neurotransmitters. […]\nQuantification of corneal epithelial nerve density and synapses. Tissue sections: TUBB3+ nerve density within 300 μm sections of central cornea epithelial ROI was quantified by applying Tsai's thresholding method (Moments), with integrated densities within the ROI of the thresholded image being recorded. Corneal whole mounts: The density of nerves expressing GAP43, TUBB3, or GAP43 and TUBB3 (% Area of 354 μm×396 μm) was quantified from central cornea images of whole mount cornea and plotted in a stacked bar graph to visualize the proportion of each of the three nerve types. Similarly, numbers of synapses marked by expression of GAP43, TUBB3, or GAP43 and TUBB3 were counted per respective region of central cornea (100 μm2) and plotted in a stacked bar graph. […]\n3D reconstruction of nerve fibers. […] Touching nuclei were split by the calculated seed points inside each area."}, "CD4+ T cells": {"tested_on": "CD4+ T cells", "experiment": "CD4+ T cell infiltration of cornea and lacrimal gland", "conditions": "day 15", "source_text": "(§2) We next tested whether lacripep restored basal cell identity and barrier function by reducing immune cell infiltration. Prolonged desiccating stress from reduced tear production elicits an immune response in which activated CD4+ T cells home to the corneal epithelium and stroma (primarily accumulating at the limbal region) to modulate epithelial differentiation (17) and direct the development of autoimmune mediated dry eye (18).\nFor immunofluorescent analysis, 7 or 20 μm tissue sections were incubated with the following primary antibodies: mouse anti-ZO1 conjugated to Alexa594 (1:1000, Life Technologies, Cat 339194), rabbit anti-KRT6A (1:800, Cell Signaling, Cat 4912S), chicken anti-KRT14 (1:1500, Santa Cruz, Cat 515882), rat anti-Ki67 (1:200, Biolegend, 652405), rat anti-CD4 (1:200, Santa Cruz), rabbit anti-TUBB3 (1:500, Cell Signaling, Cat 5568S), and rat anti-Ecadherin (1:300, Life Technologies, Cat 131900). Antibodies were detected using Cy2-, Cy3- or Cy5-conjugated secondary Fab fragment antibodies (Jackson Laboratories), and nuclei were stained with Hoechst 33342 (1:3000, Sigma-Aldrich). Fluorescence was analyzed using a Zeiss LSM 900 confocal microscope or Zeiss Yokogawa Spinning disk confocal microscope with images assessed using NIH ImageJ software, as described below.\nQuantification of CD4+ T cells in cornea and Lacrimal gland. […]"}, "Aire KO mice [3]": {"tested_on": "Aire KO mice", "experiment": "Pilocarpine-stimulated (maximal) tear secretion in Aire KO mice", "conditions": "between Aire KO treatment conditions; 4.5 mg/kg pilocarpine i.p.", "source_text": "as §2\nAire KO female mice aged 5 weeks were used for the study. All mice were topically treated with 5 μL per eye of 4 μM lacripep. Dosing was three times daily for 14 consecutive days. Lissamine green staining assessment and tear secretion assays were performed on each eye before treatment at baseline, 7 days and 14 days post treatment\nas §1"}}}
{"substance": "Ac-KQFIENGSEFAQKLLKKFSLLKPWA-NH2 [lacripep, amino terminus acetylated, carboxyl terminus aminated]", "values": [{"measurement": "basal tear volumes relative to WT", "setting": "Aire KO mice [1]", "result": "83 % of WT"}, {"measurement": "intraepithelial sensory nerve terminals", "setting": "[2]; PBS 5, WT 78", "result": 50, "unit": "per 0.1 mm^2"}, {"measurement": "proportion of sensory nerve terminals expressing GAP43 as opposed to only TUBB3", "setting": "[2]; compared to WT controls", "result": "increase"}, {"measurement": "CD4+ T cell infiltration of cornea", "setting": "CD4+ T cells; Aire KO corneas regardless of treatment", "result": "extensively infiltrated by CD4+ T cells"}, {"measurement": "CD4+ T cell infiltration of lacrimal glands", "setting": "CD4+ T cells; Aire KO lacrimal glands regardless of treatment", "result": "extensively infiltrated by CD4+ T cells"}, {"measurement": "maximal tear secretion in response to pilocarpine", "setting": "Aire KO mice [3]", "result": "no difference"}]}
